Data on five compounds can be found in patent EP3875456A1, “HETERO-BIFUNCTIONAL PROTEOLYSIS-TARGETING CHIMERAS (PROTACS) FOR THE SELECTIVE DEGRADATION OF FK506-BINDING PROTEINS (FKBPS)” (Technische Universität Darmstadt, priority 2020, dated 2021).

For assay [1], the target named is T1, FKBP51FK1 (Homo sapiens, UniProt Q13451).
T1 construct: FKBP51FK1
T1 sequence (Q13451 42-130 limits assumed): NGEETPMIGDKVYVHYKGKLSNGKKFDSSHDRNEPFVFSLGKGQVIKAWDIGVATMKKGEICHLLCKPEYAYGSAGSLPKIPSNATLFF
The assay can be described thus: Binding affinities of exemplary compounds to FKBP51. Here is the method: Binding to FKBP51 is an important prerequisite in order to allow degradation of FKBP51. Thus, the binding affinities of the newly synthesized molecules (table 1) were tested.

Assay [2] deals with T2, FKBP51 (Homo sapiens, UniProt Q13451).
T2 sequence (Q13451 1-457): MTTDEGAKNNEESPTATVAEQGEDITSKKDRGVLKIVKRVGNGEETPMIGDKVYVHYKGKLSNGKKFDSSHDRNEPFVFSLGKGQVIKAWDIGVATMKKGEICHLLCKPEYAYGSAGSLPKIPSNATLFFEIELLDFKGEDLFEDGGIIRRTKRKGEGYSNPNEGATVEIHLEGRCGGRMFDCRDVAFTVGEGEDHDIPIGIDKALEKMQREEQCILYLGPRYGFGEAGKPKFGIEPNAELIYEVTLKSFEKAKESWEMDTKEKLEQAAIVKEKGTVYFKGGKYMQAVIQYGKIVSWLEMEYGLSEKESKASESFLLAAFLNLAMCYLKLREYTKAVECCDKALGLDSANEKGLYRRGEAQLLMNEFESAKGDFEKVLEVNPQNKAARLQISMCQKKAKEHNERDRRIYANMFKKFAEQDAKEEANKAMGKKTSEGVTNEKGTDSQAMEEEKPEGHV
The assay can be described thus: Degradation of FKBP51 in HEK293T cells (Western blot). In kind it is cell-based. On the set-up: Upper blot: Endogeneous FKBP51; endogenous in cells. To be noted: 48 h incubation, endogeneous FKBP51, Western Blot, GAPDH control. Here is the method: HEK293T cells were incubated with the PROTAC MTQ202. 35,000 cells per well in a 24 well format. Figure 3-Upper blot: Endogeneous FKBP51. Figure 3-Lower blot: GAPDH. Cells were treated with the compound for 48 h before lysis. All samples have been exposed to a constant DMSO concentration. Lysate protein concentration was quantified via BCA assay and normalized with Lämmli buffer. Equal amounts of total protein were subjected to SDS-Page and Western Blot afterwards.

Assay [3] concerns the target T2, FKBP51. The assay can be described thus: Degradation of FKBP51 in HeLa cells (Western blot). In kind it is cell-based. To be noted: 24 h incubation, endogeneous FKBP51, Western Blot, GAPDH control. On the set-up: Upper blot: Endogeneous FKBP51; endogenous in cells; host or cells: HeLa. Here is the method: HeLa cells were incubated with the PROTAC MTQ202. 35,000 cells per well in a 24 well format. Figure 2 - Upper blot: Endogeneous FKBP51. Figure 2 - Lower blot: GAPDH. Cells were treated with the compound for 24 h before lysis. All samples have been exposed to a constant DMSO concentration. Lysate protein concentration was quantified via BCA assay and normalized with Lämmli buffer. Equal amounts of total protein were subjected to SDS-Page and Western Blot afterwards.

Regarding `COc1ccc(CC[C@@H](OC(=O)[C@@H]2CCCCN2C(=O)[C@H](c2cc(OC)c(OC)c(OC)c2)C2CCCCC2)c2cccc(OCc3cn(CCOCCOCCOCC(=O)Nc4cccc5c4C(=O)N(C4CCC(=O)NC4=O)C5=O)nn3)c2)cc1OC` (stereo partly drawn) [MTQ206, (2S)-(1R)-3-(3,4-Dimethoxyphenyl)-1-(3-((1-(2-(2-(2-(2-((2-(2,6-dioxopiperidin-3-yl)-1,3-dioxoisoindolin-4-yl)amino)-2-oxoethoxy)ethoxy)ethoxy)ethyl)-1H-1,2,3-triazol-4-yl)methoxy)phenyl)propyl 1-((S)-2-cyclohexyl-2-(3,4,5-trimethoxyphenyl)acetyl)piperidine-2-carboxylate], in assay [1], the Ki (usually a dissociation constant, usually derived from enzyme kinetics or from competition with a known ligand) was 22 ± 6 nM.

In assay [1], `COc1ccc(CC[C@@H](OC(=O)[C@@H]2CCCCN2C(=O)[C@H](c2cc(OC)c(OC)c(OC)c2)C2CCCCC2)c2cccc(OCc3cn(CCOCCOCC(=O)N[C@H](C(=O)N4C[C@H](O)C[C@H]4C(=O)NCc4ccc(-c5scnc5C)cc4)C(C)(C)C)nn3)c2)cc1OC` [MTQ200] had an inhibitory constant (Ki) of 24 ± 7 nM.

Compound `COc1ccc(CC[C@H](OC(=O)[C@H]2CCCCN2C(=O)[C@H](c2cc(OC)c(OC)c(OC)c2)C2CCCCC2)c2cccc(OCc3cn(CCOCCOCCOCCOCC(=O)N[C@H](C(=O)N4C[C@H](O)C[C@H]4C(=O)NCc4ccc(-c5scnc5C)cc4)C(C)(C)C)nn3)c2)cc1OC` (stereo in doubt) [MTQ202, (S)-(R)-3-(3,4-Dimethoxyphenyl)-1-(3-((1-((S)-16-((2S,4R)-4-hydroxy-2-((4-(4-methylthiazol-5-yl)benzyl)carbamoyl)pyrrolidine-1-carbonyl)-17,17-dimethyl-14-oxo-3,6,9,12-tetraoxa-15-azaoctadecyl)-1H-1,2,3-triazol-4-yl)methoxy)phenyl)propyl 1-((S)-2-cyclohexyl-2-(3,4,5-trimethoxyphenyl)acetyl)piperidine-2-carboxylate] registered a Ki in assay [1] of 24 ± 8 nM. In addition, the “Degradation of FKBP51” value in assay [2] is “clearly visible, but not complete”; in assay [3], “clearly visible, but not complete”.

`COc1ccc(CC[C@@H](OC(=O)[C@@H]2CCCCN2C(=O)[C@H](c2cc(OC)c(OC)c(OC)c2)C2CCCCC2)c2cccc(OCc3cn(CCOCCOCC(=O)Nc4cccc5c4C(=O)N(C4CCC(=O)NC4=O)C5=O)nn3)c2)cc1OC` (stereo partly drawn) [MTQ205, (2S)-(1R)-3-(3,4-Dimethoxyphenyl)-1-(3-((1-(2-(2-(2-((2-(2,6-dioxopiperidin-3-yl)-1,3-dioxoisoindolin-4-yl)amino)-2-oxoethoxy)ethoxy)ethyl)-1H-1,2,3-triazol-4-yl)methoxy)phenyl)propyl 1-((S)-2-cyclohexyl-2-(3,4,5-trimethoxyphenyl)acetyl)piperidine-2-carboxylate]: in assay [1], the affinity corresponds to a Ki of 16 ± 5 nM.

For `COc1cccc([C@H](CCc2ccc(OCc3cn(CCOCCOCCOCC(=O)N[C@H](C(=O)N4C[C@H](O)C[C@H]4C(=O)NCc4ccc(-c5scnc5C)cc4)C(C)(C)C)nn3)c(OC)c2)OC(=O)[C@H]2CCCCN2C(=O)[C@H](c2cc(OC)c(OC)c(OC)c2)C2CCCCC2)c1` [MTQ330, (S)-(R)-3-(4-((1-((S)-13-((2S,4R)-4-Hydroxy-2-((4-(4-methylthiazol-5-yl)benzyl)carbamoyl)pyrrolidine-1-carbonyl)-14,14-dimethyl-11-oxo-3,6,9-trioxa-12-azapentadecyl)-1H-1,2,3-triazol-4-yl)methoxy)-3-methoxyphenyl)-1-(3-methoxyphenyl)propyl 1-((S)-2-cyclohexyl-2-(3,4,5-trimethoxyphenyl)acetyl)piperidine-2-carboxylate], the Ki in assay [1] was 86 ± 26 nM.
